Results from patent US9938257B2 (Sunshine Lake Pharma Co., Ltd., priority 2015, dated 2018).

Legend:
JAK2 (h) = JAK2 (h) (Homo sapiens (Human), UniProt O60674); test: JAK2 (h) kinase activity assay; assay type: biochemical
Procedure: (§1) The above assay procedure can be used to determine the IC50 for inhibition and/or the inhibition constant, Ki. The IC50 is defined as the concentration of compound required to reduce the enzyme activity by 50% under the condition of the assay. The IC50 value is estimated by preparing a 10 point curve using a ½ log dilution series (for example, a typical curve may be prepared using the following compound concentrations: 3 μM, 1 μM, 0.3 μM, 0.1 μM, 0.03 μM, 0.01 μM, 0.003 μM, 0.001 μM, 0.0003 μM and 0 μM).
JAK2 (h) is incubated with 8 mM MOPS pH 7.0, 0.2 mM EDTA, 100 μM […], 10 mM MgAcetate and [γ-^33P-ATP] (specific activity approx. 500 cpm/pmol, concentration as required). The reaction is initiated by the addition of the MgATP mix. After incubation for 40 minutes at room temperature, the reaction is stopped by the addition of 3% phosphoric acid solution. 10 μL of the reaction is then spotted onto a P30 filtermat and washed three times for 5 minutes in 75 mM phosphoric acid and once in methanol prior to drying and scintillation counting.
(§2) The kinase assays described herein were performed at Millipore UK Ltd, Dundee Technology Park, Dundee DD2 1SW, UK.

Aurora-A (h) = Aurora-A (h) (Homo sapiens (Human), UniProt O14965); test: Aurora-A (h) kinase activity assay; assay type: biochemical
Sequence of Aurora-A (h) (O14965 whole entry): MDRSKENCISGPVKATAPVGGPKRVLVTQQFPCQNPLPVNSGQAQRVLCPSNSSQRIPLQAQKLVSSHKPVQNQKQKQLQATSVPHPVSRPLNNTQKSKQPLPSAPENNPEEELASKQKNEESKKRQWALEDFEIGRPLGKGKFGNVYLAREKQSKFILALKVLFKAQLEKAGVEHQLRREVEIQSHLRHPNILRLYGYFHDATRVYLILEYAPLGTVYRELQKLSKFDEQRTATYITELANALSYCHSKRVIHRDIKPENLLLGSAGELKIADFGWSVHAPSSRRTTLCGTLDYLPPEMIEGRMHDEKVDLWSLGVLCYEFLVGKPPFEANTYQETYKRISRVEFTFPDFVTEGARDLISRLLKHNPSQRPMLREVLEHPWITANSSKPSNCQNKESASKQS
Procedure: as §1
Aurora-A (h) is incubated with 8 mM MOPS pH 7.0, 0.2 mM EDTA, 200 μM LRRASLG (Kemptide), 10 mM MgAcetate and [γ-^33P-ATP] (specific activity approx. 500 cpm/pmol, concentration as required). The reaction is initiated by the addition of the MgATP mix. After incubation for 40 minutes at room temperature, the reaction is stopped by the addition of 3% phosphoric acid solution. 10 μL of the reaction is then spotted onto a P30 filtermat and washed three times for 5 minutes in 75 mM phosphoric acid and once in methanol prior to drying and scintillation counting.
as §2

JAK1 (h) = JAK1 (h) (Homo sapiens (Human), UniProt P23458); test: JAK1 (h) kinase activity assay; assay type: biochemical
Sequence of JAK1 (h) (P23458 whole entry): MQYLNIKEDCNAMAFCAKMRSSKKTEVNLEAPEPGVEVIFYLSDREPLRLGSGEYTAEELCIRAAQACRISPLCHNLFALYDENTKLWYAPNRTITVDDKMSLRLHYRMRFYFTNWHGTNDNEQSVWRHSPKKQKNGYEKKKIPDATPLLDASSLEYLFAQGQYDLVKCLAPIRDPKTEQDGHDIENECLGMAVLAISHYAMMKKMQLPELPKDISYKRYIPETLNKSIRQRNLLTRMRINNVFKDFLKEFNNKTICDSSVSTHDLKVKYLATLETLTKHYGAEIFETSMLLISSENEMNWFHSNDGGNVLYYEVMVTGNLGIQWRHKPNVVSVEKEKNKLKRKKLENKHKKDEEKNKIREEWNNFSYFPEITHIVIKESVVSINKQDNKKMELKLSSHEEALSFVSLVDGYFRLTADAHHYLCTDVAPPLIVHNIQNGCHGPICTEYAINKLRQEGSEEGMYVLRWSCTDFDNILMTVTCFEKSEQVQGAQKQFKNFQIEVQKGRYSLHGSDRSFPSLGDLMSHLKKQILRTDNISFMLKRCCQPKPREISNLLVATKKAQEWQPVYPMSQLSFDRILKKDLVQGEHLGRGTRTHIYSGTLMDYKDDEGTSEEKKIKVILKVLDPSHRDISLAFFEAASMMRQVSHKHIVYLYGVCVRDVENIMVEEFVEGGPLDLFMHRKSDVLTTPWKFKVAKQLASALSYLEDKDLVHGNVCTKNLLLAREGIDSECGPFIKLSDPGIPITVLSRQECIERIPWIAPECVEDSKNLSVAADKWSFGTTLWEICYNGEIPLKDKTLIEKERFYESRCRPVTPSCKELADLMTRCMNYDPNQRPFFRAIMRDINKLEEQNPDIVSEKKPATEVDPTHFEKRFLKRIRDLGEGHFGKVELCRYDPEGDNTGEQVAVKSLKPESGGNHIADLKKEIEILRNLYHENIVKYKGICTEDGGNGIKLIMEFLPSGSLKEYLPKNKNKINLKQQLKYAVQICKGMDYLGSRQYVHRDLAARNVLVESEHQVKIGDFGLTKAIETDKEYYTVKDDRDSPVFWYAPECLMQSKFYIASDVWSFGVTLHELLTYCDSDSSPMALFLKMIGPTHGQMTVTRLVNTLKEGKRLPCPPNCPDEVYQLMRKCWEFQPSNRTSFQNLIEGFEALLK
Procedure: as §1
JAK1 (h) is incubated with 20 mM Tris/HCl pH 7.5, 0.2 mM EDTA, 500 μM GEEPLYWSFPAKKK, 10 mM MgAcetate and [γ-^33P-ATP] (specific activity approx. 500 cpm/pmol, concentration as required). The reaction is initiated by the addition of the MgATP mix. After incubation for 40 minutes at room temperature, the reaction is stopped by the addition of 3% phosphoric acid solution. 10 μL of the reaction is then spotted onto a P30 filtermat and washed three times for 5 minutes in 75 mM phosphoric acid and once in methanol prior to drying and scintillation counting.
as §2

Aurora-B (h) = Aurora-B (h) (Homo sapiens (Human), UniProt Q96GD4); test: Aurora-B (h) kinase activity assay; assay type: biochemical
Sequence of Aurora-B (h) (Q96GD4 whole entry): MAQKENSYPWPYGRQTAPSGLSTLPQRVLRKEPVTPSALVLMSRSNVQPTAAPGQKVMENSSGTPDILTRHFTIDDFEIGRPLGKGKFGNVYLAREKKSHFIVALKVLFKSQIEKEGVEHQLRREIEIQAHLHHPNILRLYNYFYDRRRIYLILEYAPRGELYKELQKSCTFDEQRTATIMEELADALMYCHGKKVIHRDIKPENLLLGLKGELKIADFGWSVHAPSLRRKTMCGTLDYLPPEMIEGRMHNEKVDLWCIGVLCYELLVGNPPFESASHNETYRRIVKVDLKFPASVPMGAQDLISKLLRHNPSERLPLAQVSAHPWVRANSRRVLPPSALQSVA
Procedure: as §1
Aurora-B (h) is incubated with 8 mM MOPS pH 7.0, 0.2 mM EDTA, 30 μM AKRRRLSSLRA, 10 mM MgAcetate and [γ-^33PATP] (specific activity approx. 500 cpm/pmol, concentration as required). The reaction is initiated by the addition of the MgATP mix. After incubation for 40 minutes at room temperature, the reaction is stopped by the addition of a 3% phosphoric acid solution. 10 μL of the reaction is then spotted onto a P30 filtermat and washed three times for 5 minutes in 75 mM phosphoric acid and once in methanol prior to drying and scintillation counting.
as §2

FLT3 (h) = FLT3 (h) (Homo sapiens (Human), UniProt P36888); test: FLT3 (h) kinase activity assay; assay type: biochemical
Sequence of FLT3 (h) (P36888 27-993): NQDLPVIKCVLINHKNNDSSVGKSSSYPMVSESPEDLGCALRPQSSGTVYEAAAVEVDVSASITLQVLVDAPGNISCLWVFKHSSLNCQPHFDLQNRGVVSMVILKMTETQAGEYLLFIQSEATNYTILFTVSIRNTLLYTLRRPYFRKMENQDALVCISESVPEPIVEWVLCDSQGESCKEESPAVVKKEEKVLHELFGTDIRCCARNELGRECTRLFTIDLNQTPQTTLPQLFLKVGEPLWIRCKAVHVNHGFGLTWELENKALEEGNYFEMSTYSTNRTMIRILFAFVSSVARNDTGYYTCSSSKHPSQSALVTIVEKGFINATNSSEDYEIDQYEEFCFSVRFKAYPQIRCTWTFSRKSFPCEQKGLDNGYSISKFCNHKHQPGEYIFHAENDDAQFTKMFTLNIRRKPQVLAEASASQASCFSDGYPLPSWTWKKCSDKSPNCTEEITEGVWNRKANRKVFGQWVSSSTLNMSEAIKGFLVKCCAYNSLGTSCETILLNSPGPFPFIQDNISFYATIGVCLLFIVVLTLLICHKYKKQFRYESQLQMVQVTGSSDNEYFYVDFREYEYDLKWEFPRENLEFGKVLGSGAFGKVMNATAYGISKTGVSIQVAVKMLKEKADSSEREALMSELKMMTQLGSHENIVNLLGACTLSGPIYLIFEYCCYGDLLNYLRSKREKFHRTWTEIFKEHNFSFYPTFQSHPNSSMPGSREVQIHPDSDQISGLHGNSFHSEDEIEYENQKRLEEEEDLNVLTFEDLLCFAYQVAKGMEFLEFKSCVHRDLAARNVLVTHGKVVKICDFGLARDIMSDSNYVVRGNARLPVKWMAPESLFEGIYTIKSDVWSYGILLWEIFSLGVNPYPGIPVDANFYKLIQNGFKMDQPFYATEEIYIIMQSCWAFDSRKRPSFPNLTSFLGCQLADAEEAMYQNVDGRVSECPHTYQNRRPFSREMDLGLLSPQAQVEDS
Procedure: as §1
FLT3 (h) is incubated with 8 mM MOPS pH 7.0, 0.2 mM EDTA, […] EAIYAAPFAKKK, 10 mM MgAcetate and [γ-^33P-ATP] (specific activity approx. 500 cpm/pmol, concentration as required). The reaction is initiated by the addition of the MgATP mix. After incubation for 40 minutes at room temperature, the reaction is stopped by the addition of 3% phosphoric acid solution. 10 μL of the reaction is then spotted onto a P30 filtermat and washed three times for 5 minutes in 75 mM phosphoric acid and once in methanol prior to drying and scintillation counting.
as §2

[1] = Compound stability in human liver microsomes; assay type: in vitro ADME; conditions: pH 7.4; for half-life at 5 μM: human liver microsomes 0.5 mg protein/mL, compound 5 μM, NADPH 1.0 mM, 37° C., read-out: Human T1/2; for CLint scaled at 5 μM: human liver microsomes, in vivo CLint extrapolated
Method in brief: (§3)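 Microsomes 0.5 mg protein/mL; cpd 5 μM; NADPH 1.0 mM; 100 mM phosphate pH 7.4; DMSO 0.05%; 37° C; duplicates. Timepoints 0–60 min, acetonitrile stop, LC/MS/MS. Data as % of zero-time; CLint extrapolated.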

[2] = Compound stability in rat liver microsomes; assay type: in vitro ADME; conditions: pH 7.4; for half-life at 5 μM: rat liver microsomes 0.5 mg protein/mL, compound 5 μM, NADPH 1.0 mM, 37° C., read-out: Rat T1/2; for CLint scaled at 5 μM: rat liver microsomes, in vivo CLint extrapolated
Method in brief: as §3

[3] = Pharmacokinetics after intravenous and oral administration in rats; assay type: in vivo
Method in brief: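 IV doses generally 0.5, 1 or 2 mg/kg; oral doses in rats generally 0.5, 1, 5 or 10 mg/kg, given as solution, suspension or capsule in various vehicles. Blood sampled over 0.083 or 0.25 h to 24 h; plasma analysed by LC/MS/MS.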

[4] = rat, plasma, iv dosing, dose 1 mg/kg

Sequence of JAK2 (h) (O60674 whole entry): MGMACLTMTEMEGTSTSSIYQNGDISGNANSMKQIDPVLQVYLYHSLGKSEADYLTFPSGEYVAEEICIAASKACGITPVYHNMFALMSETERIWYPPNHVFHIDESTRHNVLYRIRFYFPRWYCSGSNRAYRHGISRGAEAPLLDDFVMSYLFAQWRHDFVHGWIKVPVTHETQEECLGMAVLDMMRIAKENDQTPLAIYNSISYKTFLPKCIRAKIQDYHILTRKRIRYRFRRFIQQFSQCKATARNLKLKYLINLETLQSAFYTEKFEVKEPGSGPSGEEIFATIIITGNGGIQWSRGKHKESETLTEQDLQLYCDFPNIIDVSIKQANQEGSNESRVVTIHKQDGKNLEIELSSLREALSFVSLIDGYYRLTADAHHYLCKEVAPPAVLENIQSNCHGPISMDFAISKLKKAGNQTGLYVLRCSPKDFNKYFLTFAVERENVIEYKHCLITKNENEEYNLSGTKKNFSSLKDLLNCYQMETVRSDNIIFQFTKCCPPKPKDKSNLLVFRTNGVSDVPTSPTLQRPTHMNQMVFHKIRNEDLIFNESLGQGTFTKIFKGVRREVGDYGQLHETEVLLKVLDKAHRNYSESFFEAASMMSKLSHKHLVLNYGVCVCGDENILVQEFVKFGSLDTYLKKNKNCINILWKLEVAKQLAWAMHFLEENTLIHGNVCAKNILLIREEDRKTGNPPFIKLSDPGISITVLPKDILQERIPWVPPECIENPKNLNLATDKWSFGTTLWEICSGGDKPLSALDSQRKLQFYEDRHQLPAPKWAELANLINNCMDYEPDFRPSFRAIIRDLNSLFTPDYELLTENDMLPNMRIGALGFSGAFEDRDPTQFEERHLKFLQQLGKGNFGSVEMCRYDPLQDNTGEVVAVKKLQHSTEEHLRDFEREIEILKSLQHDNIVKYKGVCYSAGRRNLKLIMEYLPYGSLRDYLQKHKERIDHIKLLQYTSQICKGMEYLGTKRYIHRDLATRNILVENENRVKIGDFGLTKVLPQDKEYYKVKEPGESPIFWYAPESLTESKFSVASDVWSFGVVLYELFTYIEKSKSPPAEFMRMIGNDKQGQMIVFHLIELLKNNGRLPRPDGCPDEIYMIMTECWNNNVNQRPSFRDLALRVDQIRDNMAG

SMILES | IC50 (JAK2 (h)) [nM] | IC50 (Aurora-A (h)) [nM] | IC50 (JAK1 (h)) [nM] | IC50 (Aurora-B (h)) [nM] | IC50 (FLT3 (h)) [nM] | half-life at 5 μM [1] [min] | CLint scaled at 5 μM [1] [mL/min/kg] | half-life at 5 μM [2] [min] | CLint scaled at 5 μM [2] [mL/min/kg] | Clearance (CL) after iv dosing ([3]; iv dosing, dose 1 mg/kg) [L/h/kg] | F ([3]; oral bioavailability, iv dose 1 mg/kg) [%] | AUC(0-t) [3, 4] [ng·h/mL] | half-life [3, 4] [min] | Vd ([3]; rat, plasma, iv dosing, dose 1 mg/kg, read-out: Vss) [L/kg]
N#CCC(=O)N1CC2CC(Nc3nc(Nc4cnn(-c5ccccn5)c4)ncc3Cl)CC2C1 (centres unmarked) [Ex. 7, 3-(5-((5-chloro-2-((1-(pyridin-2-yl)-1H-pyrazol-4-yl)amino)pyrimidin-4-yl)amino)hexahydrocyclopenta[c]pyrrol-2(1H)-yl)-3-oxopropanenitrile] | 20 | 8 | 0.6 | – | – | – | – | – | – | – | – | – | – | –
COc1ccc(-n2cc(Nc3ncc(Cl)c(NC4CC5CN(C(=O)CC#N)CC5C4)n3)cn2)cn1 (centres unmarked) [Ex. 10, 3-(5-((5-chloro-2-((1-(6-methoxypyridin-3-yl)-1H-pyrazol-4-yl)amino)pyrimidin-4-yl)amino)hexahydrocyclopenta[c]pyrrol-2(1H)-yl)-3-oxopropanenitrile] | 16 | 4 | < 0.3 | – | – | – | – | – | – | – | – | – | – | –
CCOC(=O)N1CC2CC(Nc3nc(Nc4cnn(C)c4)ncc3Cl)CC2C1 (centres unmarked) [Ex. 15, ethyl 5-((5-chloro-2-((1-methyl-1H-pyrazol-4-yl)amino)pyrimidin-4-yl)amino)hexahydrocyclopenta[c]pyrrole-2(1H)-carboxylate] | 136 | 10 | 8 | 2 | 503 | – | – | – | – | – | – | – | – | –
CCNC(=O)N1CC2CC(Nc3nc(Nc4cnn(C)c4)ncc3Cl)CC2C1 (centres unmarked) [Ex. 18, 5-((5-chloro-2-((1-methyl-1H-pyrazol-4-yl)amino)pyrimidin-4-yl)amino)-N-ethylhexahydrocyclopenta[c]pyrrole-2(1H)-carboxamide] | 142 | 11 | 12 | 2 | 1020 | 145 | 12 | 9.46 | 263 | – | – | – | – | –
CC(C)(O)Cn1cc(Nc2ncc(Cl)c(NC3CCC4(CC3)CCN(S(C)(=O)=O)CC4)n2)cn1 [Ex. 37, 1-(4-((5-chloro-4-((3-(methylsulfonyl)-3-azaspiro[5.5]undecan-9-yl)amino)pyrimidin-2-yl)amino)-1H-pyrazol-1-yl)-2-methylpropan-2-ol] | 131 | 71 | 2 | – | – | 54.3 | 32 | 70.5 | 35.2 | 1.76 | 53.6 | 604 | 75 | 2.61
